Source: patent US20170166555A1, “FUNCTIONALISED AND SUBSTITUTED INDOLES AS ANTI-CANCER AGENTS” (Novogen Limited, priority 2013, published 2017)

Legend:
[1] = system: DU145 prostate cancer cells; assay: Anti-proliferative assay, cell-titre luminescent reagent, 72 h (GVK-BIO); assay type: cell-based; details: Homo sapiens, DU-145, 72 h, 30, 3, 0.3 and 0.03 μM, linear regression (Tables 2-4)
In short: (§1)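 Luminescence, read 30 min after reagent addition, was normalized to untreated or vehicle-only wells. Dosing followed a 24 h attachment period at 37 °C in 5% CO2. Values are either IC50s from linear regression (4 concentrations, 30 to 0.03 μM) or EC50s from nonlinear variable-slope fits (6 concentrations, 30 to 0.1 μM).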

[2] = system: CaCo2 colorectal cancer cells; assay: as above; assay type: cell-based; details: Homo sapiens, Caco-2, 72 h, 30, 3, 0.3 and 0.03 μM, linear regression (Tables 2-4)
In short: as §1

[3] = system: A549 non-small cell lung carcinoma cells; assay: as above; assay type: cell-based; details: Homo sapiens, A549, 72 h, 30, 3, 0.3 and 0.03 μM, linear regression (Tables 2-4), read-out: IC50/μM Lung (NSLC) A549
In short: as §1

[4] = system: SK-N-SH neuroblastoma cells; assay: as above; assay type: cell-based; details: Homo sapiens, SK-N-SH, 30, 3, 0.3 and 0.03 μM, linear regression (Tables 2-4)
In short: as §1

[5] = system: PC3 prostate cancer cells; assay: as above; assay type: cell-based; details: 30, 3, 0.3 and 0.03 μM, linear regression (Tables 2-4)
In short: as §1

[6] = system: MDA-MB-231 triple negative breast cancer cells; assay: as above; assay type: cell-based; details: Homo sapiens, MDA-MB-231, 72 h, 30, 3, 0.3 and 0.03 μM, linear regression (Tables 2-4)
In short: as §1

[7] = system: SK-Mel-28 melanoma cells; assay: as above; assay type: cell-based; details: Homo sapiens, SK-MEL-28, 72 h, 30, 3, 0.3 and 0.03 μM, linear regression (Tables 2-4)
In short: as §1

[8] = biological target: Tm5NM1 (Homo sapiens, UniProt P06753); assay: Pyrene-based actin filament depolymerization assay; assay type: biochemical; details: for Rate of depolymerization of Tm5NM1-containing actin filaments in the presence of compound (in words): Tm5NM1 pre-incubated with 50 μM compound, compared to F-actin alone
Chain of Tm5NM1 (P06753 1-248 isoform P06753-2): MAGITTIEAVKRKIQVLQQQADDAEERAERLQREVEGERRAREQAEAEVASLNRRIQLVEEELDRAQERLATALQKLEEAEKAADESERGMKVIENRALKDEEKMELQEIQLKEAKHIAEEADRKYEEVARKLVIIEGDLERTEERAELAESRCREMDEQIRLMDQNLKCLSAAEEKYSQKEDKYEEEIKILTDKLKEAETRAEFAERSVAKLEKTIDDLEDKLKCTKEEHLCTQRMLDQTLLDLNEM
Protocol: FIG. 4: Impact of compounds 4015 and 4093 on Tm5NM1-regulated actin-filament depolymerization kinetics. (A, C and E) Depolymerization time course of 6 μM actin filaments (35% pyrene labelled) diluted 12-fold into F-actin buffer (100 mM NaCl, 10 mM Tris-HCl pH 7.0, 2 mM MgCl2, 1 mM EGTA, 0.2 mM CaCl2, 0.2 mM ATP, 0.5 mM DTT, 0.01% (v/v) NaN3) in the presence or absence of saturating amounts (10 μM) of Tm5NM1. Final concentration of F-actin and Tm5NM1 was 0.5 μM and 0.83 μM respectively. Tm5NM1 was pre-incubated with 50 μM 4015, 4093 or 1% (v/v) DMSO prior to mixing with F-actin. Depolymerization data is normalized to the initial fluorescence value. (B, D and F) Initial rates (V0) of depolymerization for F-actin alone or Tm5NM1/F-actin, in the presence of compound 4015 or 4093. Initial rates of depolymerization were determined from the first 3600 s, fitted to a linear regression model. Data represents mean ±SEM, averaged from n>8 replicates. **** p<0.0001, ** p<0.005.
A brief overview and rationale of the assay is as follows: to promote depolymerization, pyrene-labelled actin filaments were diluted below the critical concentration of the pointed end (0.5 μM, as defined by Pollard et al., 1986). A decline in fluorescence was measured over time as actin monomers dissociate. […] Therefore, any compound, which interacts with, and impacts Tm5NM1 function, would nullify the protective effect of Tm5NM1 on actin depolymerization.
For all assays the depolymerization of F-actin alone and F-actin-coated with the human homologue of Tm5NM1 was used as a comparative control. Briefly, Tm5NM1 was pre-incubated with F-actin for 20 minutes prior to diluting the filaments, to allow for proper assembly of the Tm5NM1 polymer.
The depolymerization of F-actin alone and F-actin-coated with Tm5NM1 was then measured in the presence of test compound and initial rates of depolymerization were compared. Tm5NM1 was pre-incubated with 50 μM 4015 and 4093 prior to being added to the actin filaments as previously described. In the presence of compound 4015, the rate of depolymerization of Tm5NM1-containing actin filaments was increased.

| SMILES | IC50 [1] [µM] | IC50 [2] [µM] | IC50 [3] [µM] | IC50 [4] [µM] | IC50 [5] [µM] | IC50 [6] [µM] | IC50 [7] [µM] | Rate of depolymerization of Tm5NM1-containing actin filaments in the presence of compound (in words) [8] | Initial rate (V0) of depolymerization, F-actin alone ([8]; 50 μM compound, FIG. 4E and F) | Initial rate (V0) of depolymerization, Tm5NM1-containing actin ([8]; 50 μM compound, FIG. 4E and F) |
| --- | --- | --- | --- | --- | --- | --- | --- | --- | --- | --- |
| Cc1c(C)n(CCCN(C)C)c2ccc(CN3CCN(CCc4ccccc4)CC3)cc12 [Compound 4015, 3-(2,3-dimethyl-5-((4-phenethylpiperazin-1-yl)methyl)-1H-indol-1-yl)-N,N-dimethylpropan-1-amine] | 3.7 | 2.9 | 1.8 | 4.6 | 2.9 | 3 | 3.9 | increased | – | – |
| Cc1c(C)n(CCCN(C)C)c2ccc(Oc3ccc(C(=O)Nc4ccc(F)cc4)cc3)cc12 [Compound 4093, 4-((1-(3-(dimethylamino)propyl)-2,3-dimethyl-1H-indol-5-yl)oxy)-N-(4-fluorophenyl)benzamide] | 1.7 | 1.8 | 3 | 2.5 | 1.2 | 2.1 | 0.9 | no significant difference | −0.30±0.029×10^−4 | −0.26±0.028×10^−4 |
